Literature values as cited in US20110244050A1, “PULSED-RELEASE SILDENAFIL COMPOSITION AND METHOD FOR PREPARING SAID COMPOSITION” (SIEGFRIED RHEIN S.A. DE C.V., priority 2008, published 2011).

What was measured:
[1] = in vivo

solubility in acidic media (acidic media, like in the stomach): adequate | solubility in alkaline media (alkaline media, like that found in the intestine): decreases markedly | plasmatic elimination half-life [1]: about 4 hours
Compound: CCCc1nn(C)c2c(=O)[nH]c(-c3cc(S(=O)(=O)N4CCN(C)CC4)ccc3OCC)nc12 [sildenafil]
